Measured values: US20120315248A1 (priority 2009, published 2012)

Assays:
human fibroblasts = assay type: cell-based
[1] = tested on: MxA, ISG-15, OAS-1, and ISG-56 mRNA; assay type: cell-based, human

## IFN-α
Human fibroblasts
  protection of fibroblasts from VSV: completely protect

## CCCC(CCC)C(=O)O [VPA, valproic acid]
[1]
  basal ISG mRNA levels in SW-R: reduced basal mRNA levels for three out of four ISGs
